According to ChEMBL document CHEMBL1155821, “Discovery of (-)-7-methyl-2-exo-[3'-(6-[18F]fluoropyridin-2-yl)-5'-pyridinyl]-7-azabicyclo[2.2.1]heptane, a radiolabeled antagonist for cerebral nicotinic acetylcholine receptor (alpha4beta2-nAChR) with optimal positron emission tomography imaging properties” (J Med Chem, 2008):

Experiments:
[1] = molecular target: Neuronal acetylcholine receptor; alpha2/beta4 (Rattus norvegicus, UniProt P12389+P12392); assay: Displacement of [3H]epibatidine from rat alpha2beta4 nAChR expressed in HEK293 cells; type: cell-based
Neuronal acetylcholine receptor; alpha2/beta4, sequence (P12389 whole entry): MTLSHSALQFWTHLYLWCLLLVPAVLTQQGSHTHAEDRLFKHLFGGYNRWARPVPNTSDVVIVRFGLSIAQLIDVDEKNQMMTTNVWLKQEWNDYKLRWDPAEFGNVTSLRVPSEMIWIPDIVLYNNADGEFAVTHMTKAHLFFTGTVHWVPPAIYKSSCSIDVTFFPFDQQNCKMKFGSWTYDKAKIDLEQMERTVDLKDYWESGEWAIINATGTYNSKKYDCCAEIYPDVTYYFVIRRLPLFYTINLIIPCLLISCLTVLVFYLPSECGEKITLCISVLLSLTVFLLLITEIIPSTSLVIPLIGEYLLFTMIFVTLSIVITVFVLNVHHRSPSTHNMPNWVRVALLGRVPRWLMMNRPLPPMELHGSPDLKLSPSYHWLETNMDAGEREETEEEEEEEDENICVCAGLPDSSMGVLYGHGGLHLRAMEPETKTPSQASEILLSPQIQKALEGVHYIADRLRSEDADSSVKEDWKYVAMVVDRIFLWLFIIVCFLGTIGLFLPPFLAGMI
Neuronal acetylcholine receptor; alpha2/beta4, sequence (P12392 whole entry): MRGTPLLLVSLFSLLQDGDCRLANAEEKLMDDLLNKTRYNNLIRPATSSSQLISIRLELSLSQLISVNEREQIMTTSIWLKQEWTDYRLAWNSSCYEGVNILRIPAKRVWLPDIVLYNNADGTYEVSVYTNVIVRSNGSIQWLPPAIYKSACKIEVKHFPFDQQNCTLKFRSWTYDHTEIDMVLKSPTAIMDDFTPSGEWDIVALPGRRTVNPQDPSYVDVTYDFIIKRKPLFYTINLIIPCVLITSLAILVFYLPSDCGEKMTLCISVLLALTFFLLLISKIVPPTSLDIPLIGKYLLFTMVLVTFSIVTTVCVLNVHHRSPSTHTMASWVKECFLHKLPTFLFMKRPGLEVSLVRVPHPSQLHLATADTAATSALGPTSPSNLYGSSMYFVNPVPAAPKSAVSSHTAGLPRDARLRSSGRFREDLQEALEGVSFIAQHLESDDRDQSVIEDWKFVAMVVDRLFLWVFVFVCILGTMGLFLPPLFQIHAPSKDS

Mus musculus [2] = assay: Toxicity in CD1 mouse assessed as hyperactivity at 3.3 umol/kg, iv; type: organism-based; settings: in vivo
[3] = Half life in rhesus monkey thalamus; type: ADME, organism-based, Macaca mulatta
Mus musculus [4] = assay: Toxicity in CD1 mouse assessed as straub tail response at 6.7 umol/kg, iv; type: organism-based; settings: in vivo
Mus musculus [5] = assay: Toxicity in CD1 mouse assessed as seizures at 6.7 umol/kg, iv; type: organism-based; settings: in vivo
Mus musculus [6] = assay: Toxicity in CD1 mouse assessed as circling behavior at 0.8 umol/kg, iv; type: organism-based; settings: in vivo
[7] = molecular target: Neuronal acetylcholine receptor; alpha3/beta2 (Rattus norvegicus, UniProt P04757+P12390); assay: Displacement of [3H]epibatidine from rat alpha3beta2 nAChR expressed in HEK293 cells; type: cell-based
Neuronal acetylcholine receptor; alpha3/beta2, sequence (P04757 whole entry): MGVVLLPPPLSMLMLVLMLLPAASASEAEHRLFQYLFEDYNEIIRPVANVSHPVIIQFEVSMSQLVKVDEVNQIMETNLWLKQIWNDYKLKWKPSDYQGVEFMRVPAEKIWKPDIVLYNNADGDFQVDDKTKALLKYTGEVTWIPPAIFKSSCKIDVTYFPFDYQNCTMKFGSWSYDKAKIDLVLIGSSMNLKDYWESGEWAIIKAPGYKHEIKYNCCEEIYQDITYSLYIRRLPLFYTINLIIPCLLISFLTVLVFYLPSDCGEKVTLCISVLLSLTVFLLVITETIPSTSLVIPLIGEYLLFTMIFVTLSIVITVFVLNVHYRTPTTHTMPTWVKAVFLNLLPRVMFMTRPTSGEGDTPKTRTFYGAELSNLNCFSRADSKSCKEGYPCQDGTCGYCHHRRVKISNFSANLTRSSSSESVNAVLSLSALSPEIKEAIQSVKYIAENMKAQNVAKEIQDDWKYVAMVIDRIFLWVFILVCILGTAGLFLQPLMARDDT
Neuronal acetylcholine receptor; alpha3/beta2, sequence (P12390 whole entry): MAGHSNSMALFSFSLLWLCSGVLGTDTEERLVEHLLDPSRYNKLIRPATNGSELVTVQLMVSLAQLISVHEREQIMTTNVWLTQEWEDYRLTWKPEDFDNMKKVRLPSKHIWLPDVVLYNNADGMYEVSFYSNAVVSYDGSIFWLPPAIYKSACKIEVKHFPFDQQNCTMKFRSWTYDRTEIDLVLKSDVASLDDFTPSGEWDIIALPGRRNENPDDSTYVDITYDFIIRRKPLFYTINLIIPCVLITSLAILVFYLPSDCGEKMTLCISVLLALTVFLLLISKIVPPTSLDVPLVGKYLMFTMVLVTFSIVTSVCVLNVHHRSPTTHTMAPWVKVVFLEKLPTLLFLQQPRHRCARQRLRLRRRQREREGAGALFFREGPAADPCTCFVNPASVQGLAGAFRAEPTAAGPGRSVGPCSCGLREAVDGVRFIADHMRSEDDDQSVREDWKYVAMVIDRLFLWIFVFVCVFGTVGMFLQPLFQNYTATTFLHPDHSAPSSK

Mus musculus [8] = assay: Toxicity in CD1 mouse assessed as circling behavior at 1.7 umol/kg, iv; type: organism-based; settings: in vivo
Mus musculus [9] = assay: Toxicity in CD1 mouse assessed as straub tail response at 3.3 umol/kg, iv; type: organism-based; settings: in vivo
[10] = molecular target: Neuronal acetylcholine receptor; alpha3/beta4 (Rattus norvegicus, UniProt P04757+P12392); assay: Displacement of [3H]epibatidine from rat alpha3beta4 nAChR expressed in HEK293 cells; type: cell-based
Neuronal acetylcholine receptor; alpha3/beta4, sequence (P04757 whole entry): as the sequence (P04757 whole entry) above
Neuronal acetylcholine receptor; alpha3/beta4, sequence (P12392 whole entry): as the sequence (P12392 whole entry) above

[11] = molecular target: Neuronal acetylcholine receptor subunit alpha-2 (Rattus norvegicus, UniProt P12389+P12390); assay: Displacement of [3H]epibatidine from rat alpha2beta2 nAChR expressed in HEK293 cells; type: cell-based
Neuronal acetylcholine receptor subunit alpha-2, sequence (P12389 whole entry, one chain of several): as the sequence (P12389 whole entry) above

Mus musculus [12] = assay: Toxicity in CD1 mouse assessed as straub tail response at 1.7 umol/kg, iv; type: organism-based; settings: in vivo
Mus musculus [13] = assay: Toxicity in CD1 mouse assessed as straub tail response at 0.8 umol/kg, iv; type: organism-based; settings: in vivo
Mus musculus [14] = assay: Toxicity in CD1 mouse assessed as seizures at 1.3 umol/kg, iv; type: organism-based; settings: in vivo
Mus musculus [15] = assay: Toxicity in CD1 mouse assessed as mortality at 2.0 umol/kg, iv; type: organism-based; settings: in vivo
Mus musculus [16] = assay: Toxicity in CD1 mouse assessed as straub tail response at 1.3 umol/kg, iv; type: organism-based; settings: in vivo
[17] = Metabolic stability in CD1 mouse blood at 1.5 MBq, iv after 30 mins; type: ADME, organism-based; settings: read-out: Stability
[18] = Metabolic stability in CD1 mouse brain at 1.5 MBq, iv after 30 mins; type: ADME, organism-based; settings: read-out: Stability
[19] = Half life in iv dosed baboon thalamus; type: ADME, organism-based; settings: papio anubis
[20] = Metabolic stability in iv dosed baboon blood after 60 mins; type: ADME, organism-based; settings: papio anubis, read-out: Stability
[21] = Lipophilicity, log D at pH 7.4; type: physicochemical; settings: buffer
[22] = Displacement of [3H]epibatidine from nAChR in rat cerebral cortex membrane; type: cell membranes
[23] = molecular target: Neuronal acetylcholine receptor subunit alpha-6 (Rattus norvegicus, UniProt P12390+P43143); assay: Displacement of [3H]epibatidine from rat alpha6beta2 nAChR expressed in HEK293 cells; type: cell-based
Neuronal acetylcholine receptor subunit alpha-6, sequence (P43143 whole entry, one chain of several): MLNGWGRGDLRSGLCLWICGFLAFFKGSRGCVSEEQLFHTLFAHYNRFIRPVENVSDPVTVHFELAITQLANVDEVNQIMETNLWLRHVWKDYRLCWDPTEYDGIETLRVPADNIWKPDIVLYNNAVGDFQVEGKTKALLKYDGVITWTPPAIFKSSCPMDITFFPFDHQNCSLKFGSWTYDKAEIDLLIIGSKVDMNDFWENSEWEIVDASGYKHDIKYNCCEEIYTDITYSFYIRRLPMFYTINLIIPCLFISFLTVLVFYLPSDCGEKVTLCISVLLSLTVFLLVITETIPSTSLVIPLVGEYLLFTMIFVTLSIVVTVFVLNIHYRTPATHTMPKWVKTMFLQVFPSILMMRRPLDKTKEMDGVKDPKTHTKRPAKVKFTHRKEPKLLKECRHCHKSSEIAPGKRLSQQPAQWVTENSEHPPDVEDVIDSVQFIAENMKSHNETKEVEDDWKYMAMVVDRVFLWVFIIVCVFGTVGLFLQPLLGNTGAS

[24] = molecular target: Neuronal acetylcholine receptor; alpha4/beta4 (Rattus norvegicus, UniProt P09483+P12392); assay: Displacement of [3H]epibatidine from rat alpha4beta4 nAChR expressed in HEK293 cells; type: cell-based
Neuronal acetylcholine receptor; alpha4/beta4, sequence (P09483 whole entry): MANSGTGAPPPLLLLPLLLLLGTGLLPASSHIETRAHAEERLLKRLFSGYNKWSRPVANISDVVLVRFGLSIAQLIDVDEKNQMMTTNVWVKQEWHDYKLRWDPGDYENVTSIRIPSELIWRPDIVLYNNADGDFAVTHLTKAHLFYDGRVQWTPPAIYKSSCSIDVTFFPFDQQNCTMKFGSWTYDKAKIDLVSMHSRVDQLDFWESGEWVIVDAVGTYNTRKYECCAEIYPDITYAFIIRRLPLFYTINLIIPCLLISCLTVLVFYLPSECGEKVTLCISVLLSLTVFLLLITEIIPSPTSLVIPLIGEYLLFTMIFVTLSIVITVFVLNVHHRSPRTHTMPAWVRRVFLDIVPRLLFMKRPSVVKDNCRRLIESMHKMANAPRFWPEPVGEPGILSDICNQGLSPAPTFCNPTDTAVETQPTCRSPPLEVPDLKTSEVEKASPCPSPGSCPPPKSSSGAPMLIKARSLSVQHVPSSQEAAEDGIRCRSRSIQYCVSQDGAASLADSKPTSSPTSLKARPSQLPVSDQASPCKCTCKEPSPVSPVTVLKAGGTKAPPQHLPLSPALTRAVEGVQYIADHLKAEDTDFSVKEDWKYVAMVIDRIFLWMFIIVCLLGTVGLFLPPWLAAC
Neuronal acetylcholine receptor; alpha4/beta4, sequence (P12392 whole entry): as the sequence (P12392 whole entry) above

[25] = molecular target: Neuronal acetylcholine receptor; alpha4/beta2 (Rattus norvegicus, UniProt P09483+P12390); assay: Displacement of [3H]epibatidine from rat alpha4beta2 nAChR expressed in HEK293 cells; type: cell-based
Neuronal acetylcholine receptor; alpha4/beta2 (Rattus norvegicus, UniProt P09483+P12390), sequence (P09483 whole entry): as the sequence (P09483 whole entry) above
Neuronal acetylcholine receptor; alpha4/beta2 (Rattus norvegicus, UniProt P09483+P12390), sequence (P12390 whole entry): as the sequence (P12390 whole entry) above

Mus musculus [26] = assay: Toxicity in CD1 mouse at 0.2 umol/kg, iv; type: organism-based; settings: in vivo
Mus musculus [27] = assay: Toxicity in CD1 mouse at 0.002 umol/kg, iv; type: organism-based; settings: in vivo
Mus musculus [28] = assay: Toxicity in CD1 mouse at 0.05 umol/kg, iv; type: organism-based; settings: in vivo
Mus musculus [29] = assay: Toxicity in CD1 mouse assessed as reduced locomotor activity at 2.0 umol/kg, iv; type: organism-based; settings: in vivo
[30] = molecular target: T1, Neuronal acetylcholine receptor; alpha4/beta2 (Homo sapiens, UniProt P17787+P43681); assay: Binding affinity to human alpha4beta2 nAChR expressed in human SHEP1 cells; type: cell-based
T1 sequence (P17787 whole entry): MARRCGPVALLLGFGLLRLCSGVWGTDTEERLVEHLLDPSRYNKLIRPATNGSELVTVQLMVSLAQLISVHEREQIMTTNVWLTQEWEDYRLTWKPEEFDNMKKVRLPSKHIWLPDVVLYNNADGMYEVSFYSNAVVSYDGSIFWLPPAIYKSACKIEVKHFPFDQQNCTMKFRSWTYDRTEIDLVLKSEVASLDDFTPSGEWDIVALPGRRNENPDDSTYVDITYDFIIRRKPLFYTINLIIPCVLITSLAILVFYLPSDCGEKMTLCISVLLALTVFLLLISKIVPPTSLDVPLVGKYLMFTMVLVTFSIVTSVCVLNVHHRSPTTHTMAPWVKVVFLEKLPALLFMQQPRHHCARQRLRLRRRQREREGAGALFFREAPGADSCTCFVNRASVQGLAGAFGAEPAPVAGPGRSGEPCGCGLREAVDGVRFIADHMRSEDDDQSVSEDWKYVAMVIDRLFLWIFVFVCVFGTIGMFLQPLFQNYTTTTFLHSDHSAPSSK
T1 sequence (P43681 whole entry): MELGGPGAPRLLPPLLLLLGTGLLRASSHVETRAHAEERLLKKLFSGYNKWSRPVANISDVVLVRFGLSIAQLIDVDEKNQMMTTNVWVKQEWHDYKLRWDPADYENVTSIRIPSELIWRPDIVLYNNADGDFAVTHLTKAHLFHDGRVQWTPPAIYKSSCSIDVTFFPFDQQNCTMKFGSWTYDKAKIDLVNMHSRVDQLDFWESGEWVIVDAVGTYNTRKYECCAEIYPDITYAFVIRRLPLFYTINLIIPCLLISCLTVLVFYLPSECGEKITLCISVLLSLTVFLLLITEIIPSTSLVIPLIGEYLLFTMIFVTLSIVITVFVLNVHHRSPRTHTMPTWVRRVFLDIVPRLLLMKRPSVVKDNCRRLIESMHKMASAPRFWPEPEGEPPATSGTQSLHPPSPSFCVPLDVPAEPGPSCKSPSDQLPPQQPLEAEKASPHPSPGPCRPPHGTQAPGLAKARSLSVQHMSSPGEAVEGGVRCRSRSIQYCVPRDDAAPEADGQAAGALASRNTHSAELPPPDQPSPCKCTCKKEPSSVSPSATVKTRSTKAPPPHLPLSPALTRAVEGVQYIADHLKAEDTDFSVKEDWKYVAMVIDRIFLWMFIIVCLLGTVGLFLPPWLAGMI

[31] = molecular target: T1, Neuronal acetylcholine receptor; alpha4/beta2; assay: Antagonist activity at human alpha4beta2 nAChR expressed in human SHEP1 cells assessed as reduction in peak amplitude at 1 uM by whole cell patch clamp technique in presence of acetylcholine; type: functional, cell-based; parameters: scale not given: the % may be the effect or the level left

[18F]c1ncccc1OC[C@@H]1CCN1
Ki [1]: 181 nM | Activity (Mus musculus [2]): Toxic | half-life [3]: 4.5 h | Activity (Mus musculus [4]): Toxic | Activity (Mus musculus [5]): Toxic | Activity (Mus musculus [6]): Toxic | Ki [7]: 3.02 nM | Activity (Mus musculus [8]): Toxic | Activity (Mus musculus [9]): Toxic | Ki [10]: 3680 nM | Ki [11]: 1.44 nM | Activity (Mus musculus [12]): Toxic | Activity (Mus musculus [13]): Toxic

[18F]c1ccc(OC[C@@H]2CCN2)cn1
Activity (Mus musculus [14]): Toxic | Activity (Mus musculus [15]): Toxic | Activity (Mus musculus [16]): Toxic

CN1[C@@H]2CC[C@@H]1[C@@H](c1cncc(-c3cccc([18F])n3)c1)C2
remaining at 0.5 h [17]: 12.3% | remaining at 0.5 h [18]: 92.5% | half-life [19]: 1.33 h | remaining at 1 h [20]: 14.9%

CN1[C@@H]2CC[C@@H]1[C@@H](c1cncc(-c3cccnc3[18F])c1)C2
half-life [19]: 3.5 h

CN1[C@@H]2CC[C@@H]1[C@@H](c1cncc(-c3cccnc3F)c1)C2 (racemic)
logD [21]: 0.67 | Ki [22]: 0.16 nM

CN1[C@@H]2CC[C@@H]1[C@@H](c1cncc(-c3ccnc(F)c3)c1)C2 (racemic)
logD [21]: 0.74

CN1C2CCC1C(c1cncc(-c3ccc([18F])nc3)c1)C2 (single isomer, unassigned; (+))
Ki [22]: 2.1 nM

CN1C2CCC1C(c1cncc(-c3ccc(F)nc3)c1)C2 (single isomer, unassigned; (-))
Ki [1]: 0.51 nM | logD [21]: 0.46 | Ki [23]: 0.047 nM | Ki [7]: 0.093 nM | Ki [24]: 0.31 nM | Ki [22]: 0.05 nM | Ki [10]: 30 nM | Ki [11]: 0.009 nM | Ki [25]: 0.011 nM

CN1[C@@H]2CC[C@@H]1[C@@H](c1cncc(-c3ccnc(F)c3)c1)C2 (stereo in doubt; (+)-6a)
Ki [22]: 1.29 nM

CN1[C@@H]2CC[C@@H]1[C@@H](c1cncc(-c3cccnc3F)c1)C2 (stereo in doubt; (+)-6b)
Ki [22]: 7.35 nM

CN1[C@@H]2CC[C@@H]1[C@@H](c1cncc(-c3cccc(F)n3)c1)C2 (stereo in doubt; (+)-6c)
Ki [22]: 4.67 nM

CN1[C@@H]2CC[C@@H]1[C@@H](c1cncc(-c3ccnc(F)c3)c1)C2 (stereo in doubt; (-)-6a)
Ki [1]: 0.84 nM | Ki [23]: 0.031 nM | Ki [7]: 0.13 nM | Ki [24]: 0.58 nM | Ki [22]: 0.11 nM | Ki [10]: 39 nM | Ki [11]: 0.015 nM | Ki [25]: 0.019 nM

CN1[C@@H]2CC[C@@H]1[C@@H](c1cncc(-c3cccnc3F)c1)C2 (stereo in doubt; (-)-6b)
Ki [1]: 0.66 nM | Ki [23]: 0.021 nM | Ki [7]: 0.68 nM | Ki [24]: 0.71 nM | Ki [22]: 0.05 nM | Ki [10]: 41 nM | Ki [11]: 0.034 nM | Ki [25]: 0.058 nM

CN1[C@@H]2CC[C@@H]1[C@@H](c1cncc(-c3cccc(F)n3)c1)C2 (stereo in doubt; (-)-6c) [listing 1 of 2 here]
Ki [1]: 7.8 nM | Activity (Mus musculus [26]): Non-toxic | logD [21]: 0.99 | Activity (Mus musculus [27]): Non-toxic | Ki [23]: 0.95 nM | Activity (Mus musculus [28]): Non-toxic | Ki [7]: 4 nM | Ki [24]: 6.2 nM | Ki [22]: 0.31 nM | Ki [10]: 310 nM | Ki [11]: 0.26 nM | Activity (Mus musculus [29]): Non-toxic | Kd [30]: 0.54 nM | Ki [25]: 0.26 nM

CN1[C@@H]2CC[C@@H]1[C@@H](c1cncc(-c3cccc(F)n3)c1)C2 (stereo in doubt; (-)-6c) [listing 2 of 2 here]
Activity [31]: 14%

Clc1ccc(C2CC3CCC2N3)cn1 (centres undefined) [EPIBATIDINE]
Ki [22]: 0.045 nM
